The assay has as its target T1, KLK5 (Homo sapiens, UniProt Q9Y337).
T1 construct: purchased R&D Systems 1108-SE-010
T1 sequence (Q9Y337 23-293): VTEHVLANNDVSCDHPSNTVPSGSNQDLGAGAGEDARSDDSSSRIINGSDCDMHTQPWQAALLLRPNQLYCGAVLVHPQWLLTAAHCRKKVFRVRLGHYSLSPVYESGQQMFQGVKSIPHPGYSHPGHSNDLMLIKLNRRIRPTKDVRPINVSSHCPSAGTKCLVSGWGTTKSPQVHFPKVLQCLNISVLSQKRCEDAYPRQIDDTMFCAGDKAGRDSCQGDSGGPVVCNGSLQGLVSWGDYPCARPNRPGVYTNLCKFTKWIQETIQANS
As to the kind of experiment: Fluorescent kinetic enzyme inhibitor assay of KLK5 (Boc-VPR-AMC). The class given is biochemical. The settings on record: Table 4; 7.5 nM KLK5, 100 μM substrate. Here is the method: Fluorescent Kinetic Enzyme Inhibitor Assay of KLK5: Inhibitors (11-pt serial dilutions, 0-20 μM final concentration in reaction) were serially diluted in DMSO (2% DMSO final concentration) and then mixed with KLK5 (#1108-SE-010, R&D Systems, Minneapolis, Minnesota) in black 384 well plates (Corning #3575. Corning, NY). The final assay concentration for KLK5 is 7.5 nM in TNC buffer (25 mM Tris, 150 mM NaCl, 5 mM CaCl2), 0.01% Triton X-100, pH 8). After thirty minutes incubation at room temperature, Boc-VPR-AMC substrate was added. The final substrate concentrations for assay is 100 μM. Changes in fluorescence (excitation at 380 nm and emission at 460 nm) were measured at room temperature over time in a Biotek Synergy 2 plate reader (Winnoski, VT). Using GraphPad Prism version 6.04 software program, (GraphPad Software, San Diego, CA, graphpad.com), a four parameter curve fit was used to determine the inhibitor IC50s from a plot of the mean reaction velocity versus the inhibitor concentration. The IC50 values represent the average of three or more separate experimental determinations.

From patent publication US12590123B2, “Compounds and methods for treating cancer, viral infections, and allergic conditions” (Washington University, priority 2019, dated 2026) come the findings set out here.

The structures appear in SMILES notation.

As to `CC(=O)N[C@H]1CC(=O)NCCCC[C@@H](C(=O)N[C@@H](CCCNC(=N)N)C(=O)c2nc3ccccc3s2)NC(=O)[C@H](Cc2ccccc2)NC1=O` [VD3112, (3S,6S,14S)-6-acetamido-N—((S)-1-(benzo[d]thiazol-2-yl)-5-guanidino-1-oxopentan-2-yl)-3-benzyl-2,5,8-trioxo-1,4,9-triazacyclotetradecane-14-carboxamide], the half-maximal inhibitory concentration (IC50) (as a rule, the concentration at which inhibition is half-maximal) was 2530 nM.
